Reference: US9499535B2, “Kinase inhibitors” (ORIGENIS GMBH, priority 2011, dated 2016)

What was measured:
SYK kinase = molecular target: T1, SYK kinase (Homo sapiens, UniProt P43405); assay: SYK assay (OMNIA Kinase Assay, Invitrogen); type: biochemical; details: apparent Ki calculated from the IC50 using the Cheng-Prusoff equation; 1 mM ATP, 10 μM Peptide Substrate; read-out: SYK Activities: Ki
T1 construct: purchased Invitrogen, Carlsbad
Experimental: In the assay OMNIA® KINASE ASSAY by Invitrogen Corporation (Carlsbad) the effect of invention of a compound on the phosphorylation is determined by measurement of fluorescence intensity of a chelation-enhanced fluorophore called SOX. Upon phosphorylation of the peptide by the kinase of interest, Mg2+ is chelated to form a bridge between the SOX moiety and the phosphate group that is transferred to the specific tyrosine on the peptide. The fluorescence intensity is directly proportional to the amount of peptide phosphorylation.
To the wells of an 384 well small volume plate (Greiner, Frickenhausen) are added (i) the compound under test in 5% DMSO/distilled water (2 μl), (ii) 16 μl of the master mix containing ATP, DTT, Kinase Reaction Buffer, Omina Peptide Substrate Tyr 7 resulting in a final concentration of 1 mM ATP, 0.2 mM DTT and 10 μM Peptide Substrate.
The Master Mix and the assay plate was incubated to reaction temperature before the measurement (30° C.). The reaction was started with addition of (iii) 2 μl 4 μg/ml SYK kinase (Invitrogen, Carlsbad). During measurement fluorescence intensitiy readings were collected using a TECAN M1000 at a wavelength of λex 360/λem 485 nm every 30 s for 30 minutes. The reaction velocity was plotted versus the inhibitor concentration to determine the IC50 using XLFit 5.0 (IDBS, Guildford) to fit to a sigmoidal dose response curve, and the apparent Ki values were calculated from the IC50 using the Cheng-Prusoff equation (Cheng, Y.; Prusoff, W. H. Biochem. Pharmacol. 22, 3099-3108, 1973).

LRRK2 = LRRK2 (Homo sapiens, UniProt Q5S007); assay: LRRK2 assay (LanthaScreen Eu Kinase Binding Assay); details: 5 nM LRRK2, 10 nM tracer 236, RT 1 h; read-out: LRRK2 Activites: IC50
LRRK2, sequence (Q5S007 970-2527 limits assumed): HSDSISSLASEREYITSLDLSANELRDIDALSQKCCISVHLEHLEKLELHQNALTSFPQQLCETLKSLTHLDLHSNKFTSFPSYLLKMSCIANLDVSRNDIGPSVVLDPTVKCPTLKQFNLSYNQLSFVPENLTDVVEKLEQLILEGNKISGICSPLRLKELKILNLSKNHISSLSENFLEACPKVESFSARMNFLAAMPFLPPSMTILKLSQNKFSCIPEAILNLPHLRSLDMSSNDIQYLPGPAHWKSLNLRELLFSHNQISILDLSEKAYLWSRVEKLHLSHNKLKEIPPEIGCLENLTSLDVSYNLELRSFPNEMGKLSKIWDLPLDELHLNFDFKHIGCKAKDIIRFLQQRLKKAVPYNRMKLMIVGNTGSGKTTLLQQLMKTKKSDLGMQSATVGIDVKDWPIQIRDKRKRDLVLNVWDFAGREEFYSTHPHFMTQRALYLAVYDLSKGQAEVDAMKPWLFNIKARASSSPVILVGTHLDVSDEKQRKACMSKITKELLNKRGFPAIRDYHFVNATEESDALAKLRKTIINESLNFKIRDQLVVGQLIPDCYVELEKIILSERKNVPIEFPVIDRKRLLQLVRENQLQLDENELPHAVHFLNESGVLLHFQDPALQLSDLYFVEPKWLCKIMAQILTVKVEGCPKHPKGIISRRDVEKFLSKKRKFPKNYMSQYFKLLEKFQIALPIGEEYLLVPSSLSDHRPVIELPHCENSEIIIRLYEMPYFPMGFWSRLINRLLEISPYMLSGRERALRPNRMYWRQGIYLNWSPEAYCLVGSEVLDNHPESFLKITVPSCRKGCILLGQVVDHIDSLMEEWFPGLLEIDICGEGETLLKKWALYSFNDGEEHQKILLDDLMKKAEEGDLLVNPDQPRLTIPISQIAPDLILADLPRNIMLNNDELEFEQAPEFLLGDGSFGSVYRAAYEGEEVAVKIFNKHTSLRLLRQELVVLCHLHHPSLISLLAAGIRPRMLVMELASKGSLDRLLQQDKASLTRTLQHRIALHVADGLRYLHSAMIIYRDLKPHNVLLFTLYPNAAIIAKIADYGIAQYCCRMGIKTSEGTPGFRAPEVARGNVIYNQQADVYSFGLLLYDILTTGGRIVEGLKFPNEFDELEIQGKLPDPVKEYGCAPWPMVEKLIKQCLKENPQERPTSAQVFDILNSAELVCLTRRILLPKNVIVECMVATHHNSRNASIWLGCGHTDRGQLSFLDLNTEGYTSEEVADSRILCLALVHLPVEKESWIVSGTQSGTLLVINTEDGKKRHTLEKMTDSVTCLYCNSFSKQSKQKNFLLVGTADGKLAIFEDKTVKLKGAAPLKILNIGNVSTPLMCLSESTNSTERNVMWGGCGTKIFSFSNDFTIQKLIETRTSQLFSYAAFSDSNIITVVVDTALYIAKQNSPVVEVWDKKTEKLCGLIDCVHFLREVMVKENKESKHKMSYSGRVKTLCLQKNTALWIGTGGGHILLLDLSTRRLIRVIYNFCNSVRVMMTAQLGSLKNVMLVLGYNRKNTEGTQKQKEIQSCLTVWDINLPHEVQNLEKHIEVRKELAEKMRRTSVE
Excerpt: Binding of the tracer to the kinase is detected using a europium-labeled anti-tag antibody, which binds to the kinase of interest. […] Binding of an inhibitor to the kinase competes for binding with the tracer, resulting in a loss of FRET. The fluorescence intensity ratio is directly proportional to the amount of peptide phosphorylation.
The inhibitor concentration was plotted versus the emission ratio to determine the IC50 using XLFit 5.0 (IDBS, Guildford) to fit to a sigmoidal dose response curve with a variable slope.

Row | SMILES | Ki (SYK kinase) [µM] | IC50 (LRRK2) [µM]
1 | COc1ccc2nc(Nc3ccc4cnn(C)c4c3)c3n[nH]cc3c2c1 [Example #40, (8-Methoxy-2H-pyrazolo[3,4-c]quinolin-4-yl)-(1-methyl-1H-indazol-6-yl)-amine] | < 0.01 | 0.1 to 1
2 | COc1ccc2nc(Nc3ccc4c(c3)OCO4)c3n[nH]cc3c2c1 [Example #100, Benzo[1,3]dioxol-5-yl-(8-methoxy-2H-pyrazolo[3,4-c]quinolin-4-yl)-amine] | 0.01 to 0.1 | 0.1 to 1
3 | CC(=O)N1CCN(c2ccc(Nc3nc4ccc(I)cc4c4cn[nH]c34)cc2)CC1 [Example #357, 1-(4-(4-((8-iodo-3H-pyrazolo[3,4-c]quinolin-4-yl)amino)phenyl)piperazin-1-yl)ethan-1-one] | 0.01 to 0.1 | 0.1 to 1
4 | COc1cc2nc(Nc3ccc(N(C)C)cc3)c3n[nH]cc3c2cc1OC [Example #135, N-(7,8-Dimethoxy-2H-pyrazolo[3,4-c]quinolin-4-yl)-N′,N′-dimethyl-benzene-1,4-diamine] | 0.01 to 0.1 | 0.1 to 1
5 | CCOc1cc2nc(Nc3ccc4cn[nH]c4c3)c3n[nH]cc3c2cc1OCC [Example #92, (7,8-Diethoxy-2H-pyrazolo[3,4-c]quinolin-4-yl)-(1H-indazol-6-yl)-amine] | 0.01 to 0.1 | 0.1 to 1
6 | Fc1ccc2nc(Nc3ccc(N4CCOCC4)cc3)c3[nH]ncc3c2c1 [Example #325, 8-fluoro-N-(4-morpholinophenyl)-3H-pyrazolo[3,4-c]quinolin-4-amine] | 0.01 to 0.1 | 0.1 to 1
7 | COc1ccc2c(c1)nc(Nc1ccc(OC)c(OC)c1)c1n[nH]cc12 [Example #175, (3,4-Dimethoxy-phenyl)-(7-methoxy-2H-pyrazolo[3,4-c]quinolin-4-yl)-amine] | 0.01 to 0.1 | 0.1 to 1
8 | COc1ccc2nc(Nc3ccc4c(c3)NC(=O)CS4)c3[nH]ncc3c2c1 [Example #94, 6-(8-Methoxy-3H-pyrazolo[3,4-c]quinolin-4-ylamino)-4H-benzo[1,4]thiazin-3-one] | 0.01 to 0.1 | 0.01 to 0.1
9 | COc1ccc2nc(Nc3ccc(C(C)=O)cc3)c3n[nH]cc3c2c1 [Example #145, 1-[4-(8-Methoxy-2H-pyrazolo[3,4-c]quinolin-4-ylamino)-phenyl]-ethanone] |  | 0.1 to 1
10 | COc1ccc(CCNC(=O)Cc2ccc(Nc3nc4ccc(OC)cc4c4c[nH]nc34)cc2)cc1 [Example #215] |  | 0.1 to 1
11 | COc1ccc2nc(Nc3ccc4c(c3)NC(=O)CO4)c3[nH]ncc3c2c1 [Example #47, 6-(8-Methoxy-3H-pyrazolo[3,4-c]quinolin-4-ylamino)-4H-benzo[1,4]oxazin-3-one] |  | 0.01 to 0.1
12 | Fc1cc(Nc2nc3cccc(F)c3c3cn[nH]c23)ccc1N1CCOCC1 [Example #364, 9-fluoro-N-(3-fluoro-4-morpholinophenyl)-3H-pyrazolo[3,4-c]quinolin-4-amine] |  | 0.1 to 1
13 | COc1ccc2nc(Nc3ccc4[nH]nnc4c3)c3n[nH]cc3c2c1 [Example #48, (1H-Benzotriazol-5-yl)-(8-methoxy-2H-pyrazolo[3,4-c]quinolin-4-yl)-amine] |  | 0.1 to 1
14 | COc1ccc2nc(Nc3ccc4c[nH]nc4c3)c3n[nH]cc3c2c1 [Example #15, (2H-Indazol-6-yl)-(8-methoxy-2H-pyrazolo[3,4-c]quinolin-4-yl)-amine] |  | 0.1 to 1
15 | COc1cccc(Nc2nc3ccc(OC)cc3c3c[nH]nc23)c1 [Example #60, (3-Methoxy-phenyl)-(8-methoxy-2H-pyrazolo[3,4-c]quinolin-4-yl)-amine] | 0.01 to 0.1 | 
16 | COc1ccc2c(c1)nc(Nc1ccc(N3CCN(C)CC3)cc1)c1n[nH]cc12 [Example #176, (7-Methoxy-2H-pyrazolo[3,4-c]quinolin-4-yl)-[4-(4-methyl-piperazin-1-yl)-phenyl]-amine] | 0.01 to 0.1 | 
17 | COc1cc(OC)c2nc(Nc3ccc(NC(=O)Nc4cccc(C)c4)cc3)c3n[nH]cc3c2c1 [Example #297, 1-(4-((6,8-dimethoxy-2H-pyrazolo[3,4-c]quinolin-4-yl)amino)phenyl)-3-(m-tolyl)urea] | 0.1 to 1 | 
